Measurements as given in paper PMC4211880, “α-Mangostin Disrupts the Development of Streptococcus mutans Biofilms and Facilitates Its Mechanical Removal” (PLoS ONE, 2014).

Legend:
[1] = biological target: T1, GtfB (Streptococcus mutans, UniProt P08987); test: incorporation of […]-glucose from labelled sucrose into glucans, scintillation counting; assay type: biochemical
T1 construct: secreted enzyme from culture supernatant of S. milleri KSB8 carrying gtfB of S. mutans GS-5; purified to near homogeneity by hydroxyapatite chromatography
T1 sequence (P08987 35-1476): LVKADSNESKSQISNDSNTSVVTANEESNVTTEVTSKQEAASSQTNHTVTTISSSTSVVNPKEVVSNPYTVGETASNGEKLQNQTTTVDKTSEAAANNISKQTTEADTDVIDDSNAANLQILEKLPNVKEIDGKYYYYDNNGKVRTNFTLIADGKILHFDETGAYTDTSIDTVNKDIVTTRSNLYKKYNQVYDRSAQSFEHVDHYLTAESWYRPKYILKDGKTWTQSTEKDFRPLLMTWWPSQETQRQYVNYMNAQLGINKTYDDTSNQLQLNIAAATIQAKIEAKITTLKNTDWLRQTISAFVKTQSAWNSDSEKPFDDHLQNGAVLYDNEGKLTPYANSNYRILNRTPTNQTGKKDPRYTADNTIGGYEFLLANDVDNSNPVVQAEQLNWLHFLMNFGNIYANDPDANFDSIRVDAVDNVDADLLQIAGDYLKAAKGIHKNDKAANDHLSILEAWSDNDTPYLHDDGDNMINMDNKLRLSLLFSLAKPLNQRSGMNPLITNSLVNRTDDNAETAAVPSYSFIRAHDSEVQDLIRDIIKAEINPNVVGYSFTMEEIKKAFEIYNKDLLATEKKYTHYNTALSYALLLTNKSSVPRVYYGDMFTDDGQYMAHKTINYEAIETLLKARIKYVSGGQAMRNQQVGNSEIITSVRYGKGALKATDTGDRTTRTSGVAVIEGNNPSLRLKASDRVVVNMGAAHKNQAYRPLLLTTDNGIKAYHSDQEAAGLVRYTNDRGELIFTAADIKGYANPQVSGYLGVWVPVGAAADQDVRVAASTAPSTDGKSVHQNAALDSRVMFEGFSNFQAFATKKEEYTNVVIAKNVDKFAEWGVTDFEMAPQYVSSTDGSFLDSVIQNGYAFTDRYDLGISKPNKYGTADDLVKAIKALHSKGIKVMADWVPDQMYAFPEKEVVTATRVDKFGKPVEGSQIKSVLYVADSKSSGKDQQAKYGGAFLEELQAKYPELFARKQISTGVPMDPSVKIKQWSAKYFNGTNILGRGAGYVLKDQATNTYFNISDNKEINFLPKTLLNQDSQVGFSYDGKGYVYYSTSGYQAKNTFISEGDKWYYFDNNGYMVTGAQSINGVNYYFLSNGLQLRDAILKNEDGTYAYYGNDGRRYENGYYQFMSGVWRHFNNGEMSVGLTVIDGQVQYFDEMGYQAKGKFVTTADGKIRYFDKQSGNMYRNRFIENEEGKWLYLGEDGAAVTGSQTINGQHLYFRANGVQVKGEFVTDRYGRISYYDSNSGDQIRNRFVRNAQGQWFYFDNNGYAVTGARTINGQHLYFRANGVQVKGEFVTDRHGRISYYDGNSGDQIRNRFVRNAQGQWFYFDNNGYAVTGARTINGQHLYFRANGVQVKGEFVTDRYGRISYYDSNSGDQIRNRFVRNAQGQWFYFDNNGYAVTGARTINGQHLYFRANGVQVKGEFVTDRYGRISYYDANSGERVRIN

[2] = biological target: T2, GtfC (Streptococcus mutans, UniProt P13470); test: as above; assay type: biochemical
T2 construct: secreted enzyme from culture supernatant of S. mutans WHB 410 (expresses gtfC only); purified to near homogeneity by hydroxyapatite chromatography
T2 sequence (P13470 35-1455): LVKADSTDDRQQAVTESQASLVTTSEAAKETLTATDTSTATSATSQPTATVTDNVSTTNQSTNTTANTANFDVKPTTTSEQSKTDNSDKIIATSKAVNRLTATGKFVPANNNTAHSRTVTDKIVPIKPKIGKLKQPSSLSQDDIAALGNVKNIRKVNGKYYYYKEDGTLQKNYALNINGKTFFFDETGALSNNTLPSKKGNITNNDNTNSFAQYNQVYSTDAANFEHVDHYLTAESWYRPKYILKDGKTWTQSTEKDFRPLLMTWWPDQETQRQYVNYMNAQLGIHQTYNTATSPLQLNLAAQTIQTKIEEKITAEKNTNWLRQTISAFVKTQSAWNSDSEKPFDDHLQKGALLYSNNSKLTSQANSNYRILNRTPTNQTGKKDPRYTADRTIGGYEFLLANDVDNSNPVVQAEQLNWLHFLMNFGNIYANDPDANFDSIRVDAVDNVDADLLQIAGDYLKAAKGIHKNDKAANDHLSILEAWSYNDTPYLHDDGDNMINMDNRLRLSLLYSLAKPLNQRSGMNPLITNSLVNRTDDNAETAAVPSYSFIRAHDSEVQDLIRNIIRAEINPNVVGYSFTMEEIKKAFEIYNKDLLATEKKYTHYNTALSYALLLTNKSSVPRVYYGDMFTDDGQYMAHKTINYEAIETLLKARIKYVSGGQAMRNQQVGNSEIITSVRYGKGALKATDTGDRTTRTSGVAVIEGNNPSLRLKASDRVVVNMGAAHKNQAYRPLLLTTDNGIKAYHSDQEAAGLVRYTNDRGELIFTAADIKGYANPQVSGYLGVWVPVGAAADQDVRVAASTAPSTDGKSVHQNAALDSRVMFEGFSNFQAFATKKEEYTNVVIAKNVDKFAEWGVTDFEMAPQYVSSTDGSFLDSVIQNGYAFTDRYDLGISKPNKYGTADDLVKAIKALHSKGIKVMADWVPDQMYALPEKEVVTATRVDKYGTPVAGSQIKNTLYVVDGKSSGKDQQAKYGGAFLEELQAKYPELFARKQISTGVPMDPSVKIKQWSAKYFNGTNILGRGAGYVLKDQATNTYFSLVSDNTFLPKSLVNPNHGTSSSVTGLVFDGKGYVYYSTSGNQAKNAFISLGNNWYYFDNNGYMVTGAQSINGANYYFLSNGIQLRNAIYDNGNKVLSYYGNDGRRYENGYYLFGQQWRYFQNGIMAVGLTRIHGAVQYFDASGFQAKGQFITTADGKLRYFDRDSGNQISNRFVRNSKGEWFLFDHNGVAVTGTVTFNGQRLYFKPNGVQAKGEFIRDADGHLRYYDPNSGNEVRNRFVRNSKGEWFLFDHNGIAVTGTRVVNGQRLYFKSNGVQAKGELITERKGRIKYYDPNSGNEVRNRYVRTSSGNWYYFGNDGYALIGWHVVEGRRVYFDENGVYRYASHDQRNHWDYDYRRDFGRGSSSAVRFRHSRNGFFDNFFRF

COc1c(O)cc2oc3cc(O)c(CC=C(C)C)c(O)c3c(=O)c2c1CC=C(C)C [αMG, α-mangostin]
inhibition at 150 µM [1]: > 70%
inhibition at 150 µM [2]: > 70%
